From patent US20260337212A1, “IP4-4,6 SUBSTITUTED DERIVATIVE COMPOUNDS FOR USE IN THE TREATMENT, INHIBITION OF PROGRESSION, AND PREVENTION OF ECTOPIC CALCIFICATION” (SANIFIT THERAPEUTICS, S.A., priority 2022, published 2026)
Structures can show the parent of a compound that is named as a salt.

Assay: In vitro inhibition of calcium phosphate crystallization in human plasma (spectrophotometric)
Assay type: biochemical
Details: 0-100 μM, 1.5 mM phosphate, 12.5 mM calcium, pH 7.4, 30 min, rt, read-out: Relative Potency (EC50, inhibition of calcium phosphate crystallization)
Procedure: The in vitro efficacy of the IP4-4,6 substituted derivatives (e.g., Compounds 1 to 53) of the invention on the inhibition of calcium phosphate crystallization in human plasma samples was evaluated according to a spectrophotometric assay previously described in the art (Ferrer M, et al., Sci Rep 2017; 7:6858, doi:10.1038/s41598-017-07203-x).
A 96-well plate was employed. Plasma was spiked (1 volume of the IP4-4,6 substituted derivatives of the invention per 19 volumes of plasma) with increasing concentrations of the derivatives in the range of 0-100 μM. Plasma was then centrifuged at 10,000 g at rt and subsequently mixed with a mixture of 5 mM hydrogen phosphate and 41.67 mM calcium to attain final concentrations of 1.5 mM phosphate and 12.5 mM calcium, respectively. All reagent solutions were filtered, and pH adjusted to 7.4.
Crystallization of calcium phosphate was monitored spectrophotometrically for 30 min at rt by measuring the increments in absorbance at 550 nm using the Biotek Powerwave XS Microplate spectrophotometer (BioTek Instruments, Inc., Winooski, VT, US). The plate was incubated at rt in an orbital shaker and absorbance measured every 3 min.
Plasma crystallization was assessed based on slope measurement in the linear range between 6 and 24 min from plots of increase in absorbance versus logarithm of time. The efficacy of different myo-inositol phosphates derivatives in preventing in vitro formation of calcium phosphate crystals was assessed in human plasma samples using the slopes obtained between 6- and 24-min. Inhibition of crystallization was measured by comparing the slopes of the control sample (blank plasma) with those of samples containing the inhibitor as shown below: […]

Question: With “4,6-O-(6-(4-carboxy-1H-1,2,3-triazol-1-yl) hexyl)-myo-inositol-1,2,3,5-tetrakis(phosphate) decasodium salt [Compound 40]” as the compound, how does the EC50 read?
Answer: ≤ 5 µM

Question: Which EC50 does the source give for “4,6-O-bis(2-(4-acetylpiperazin-1-yl)ethyl)-myo-inositol-1,2,3,5-tetrakis(phosphate) octasodium salt [Compound 34]” here?
Answer: 5 to 10 µM

Question: Which EC50 does the source give for “4,6-O-bis(3-(3-phenylureido)propyl)-myo-inositol-1,2,3,5-tetrakis(phosphate) octasodium salt [Compound 46]” here?
Answer: 5 to 10 µM

Question: Which EC50 does the source give for “4,6-O-bis(3-(4-(2-carboxyethyl)-1H-1,2,3-triazol-1-yl)propyl)-myo-inositol-1,2,3,5-tetrakis(phosphate) decasodium salt [Compound 35]” here?
Answer: ≤ 5 µM

Question: For “4,6-O-bis(3-(4-(methoxymethyl)-1H-1,2,3-triazol-1-yl)propyl)-myo-inositol-1,2,3,5-tetrakis(phosphate) octasodium salt [Compound 36]”, which EC50 is on record?
Answer: 5 to 10 µM

Question: With “4,6-O-bis(3-((methoxycarbonyl)amino)propyl)-myo-inositol-1,2,3,5-tetrakis(phosphate) octasodium salt [Compound 24]” as the compound, how does the EC50 read?
Answer: > 10 µM

Question: Which EC50 does the source give for “4,6-O-bis(3-methoxypropyl)-myo-inositol-1,2,3,5-tetrakis(phosphate) octasodium salt [Compound 10]” here?
Answer: ≤ 5 µM

Question: Which EC50 does the source give for “4,6-O-bis(4-amino-4-oxobutyl)-myo-inositol-1,2,3,5-tetrakis(phosphate) octasodium salt [Compound 26]” here?
Answer: ≤ 5 µM

Question: With “4,6-O-bis(4-methylpentyl)-myo-inositol-1,2,3,5-tetrakis(phosphate) octasodium salt [Compound 21]” as the compound, how does the EC50 read?
Answer: > 10 µM

Question: For “4,6-O-bis(5-(4-(methoxymethyl)-1H-1,2,3-triazol-1-yl) pentyl)-myo-inositol-1,2,3,5-tetrakis(phosphate) octasodium salt [Compound 38]”, which EC50 is on record?
Answer: ≤ 5 µM

Question: Which EC50 does the source give for “4,6-O-bis(5-carboxypentyl)-myo-inositol-1,2,3,5-tetrakis(phosphate) decasodium salt [Compound 18]” here?
Answer: ≤ 5 µM

Question: With “4,6-O-bis(5-methoxypentyl)-myo-inositol-1,2,3,5-tetrakis(phosphate) octasodium salt [Compound 9]” as the compound, how does the EC50 read?
Answer: ≤ 5 µM

Question: For “4,6-O-bis(6,6,6-trifluorohexyl)-myo-inositol-1,2,3,5-tetrakis(phosphate) octasodium salt [Compound 23]”, which EC50 is on record?
Answer: > 10 µM

Question: For “4,6-O-bis(6-(4-(methoxymethyl)-1H-1,2,3-triazol-1-yl) hexyl)-myo-inositol-1,2,3,5-tetrakis(phosphate) octasodium salt [Compound 39]”, which EC50 is on record?
Answer: ≤ 5 µM

Question: Which EC50 does the source give for “4,6-O-bis(10-carboxydecyl)-myo-inositol-1,2,3,5-tetrakis(phosphate) decasodium salt [Compound 19]” here?
Answer: > 10 µM

Question: With “4,6-O-bis(19-methoxynonadec-10-yn-1-yl)-myo-inositol-1,2,3,5-tetrakis(phosphate) octasodium salt [Compound 20]” as the compound, how does the EC50 read?
Answer: ≤ 5 µM

Question: With “4,6-O-bis((1-(3-methoxypropyl)-1H-1,2,3-triazol-4-yl)methyl)-myo-inositol-1,2,3,5-tetrakis(phosphate) octasodium salt [Compound 32]” as the compound, how does the EC50 read?
Answer: ≤ 5 µM

Question: For “4,6-O-bis((3-(4-carboxybutanamido)propyl))-myo-inositol-1,2,3,5-tetrakis(phosphate) decasodium salt [Compound 45]”, which EC50 is on record?
Answer: ≤ 5 µM

Question: With “4,6-O-diheptyl-myo-inositol-1,2,3,5-tetrakis(phosphate) octasodium salt [Compound 5]” as the compound, how does the EC50 read?
Answer: ≤ 5 µM

Question: With “4,6-O-dipropyl-myo-inositol-1,2,3,5-tetrakis(phosphate) octasodium salt [Compound 4]” as the compound, how does the EC50 read?
Answer: ≤ 5 µM

Question: Which EC50 does the source give for CCCCCCCCCCOC1C(OP(=O)(O)O)C(OCCCCCCCCCC)C(OP(=O)(O)O)C(OP(=O)(O)O)C1OP(=O)(O)O (centres unmarked) [Compound 2, 4,6-O-didecyl-myo-inositol-1,2,3,5-tetrakis(phosphate) octasodium salt] here?
Answer: > 10 µM

Question: Which EC50 does the source give for O=P(O)(O)OC1C(OCCCCCCCCCCO)C(OP(=O)(O)O)C(OP(=O)(O)O)C(OP(=O)(O)O)C1OCCCCCCCCCCO (centres unmarked) [Compound 7, 4,6-O-bis(10-hydroxydecyl)-myo-inositol-1,2,3,5-tetrakis(phosphate) octasodium salt] here?
Answer: > 10 µM

Question: With COCCCCCCCOC1C(OP(=O)(O)O)C(OCCCCCCCOC)C(OP(=O)(O)O)C(OP(=O)(O)O)C1OP(=O)(O)O (centres unmarked) [Compound 11, 4,6-O-bis(7-methoxyheptyl)-myo-inositol-1,2,3,5-tetrakis(phosphate) octasodium salt] as the compound, how does the EC50 read?
Answer: > 10 µM

Question: For COCCCCCCCCCOC1C(OP(=O)(O)O)C(OCCCCCCCCCOC)C(OP(=O)(O)O)C(OP(=O)(O)O)C1OP(=O)(O)O (centres unmarked) [Compound 12, 4,6-O-bis(9-methoxynonyl)-myo-inositol-1,2,3,5-tetrakis(phosphate) octasodium salt], which EC50 is on record?
Answer: > 10 µM

Question: Which EC50 does the source give for NCCCOC1C(OP(=O)(O)O)C(OCCCN)C(OP(=O)(O)O)C(OP(=O)(O)O)C1OP(=O)(O)O (centres unmarked) [Compound 13, 4,6-O-bis(3-aminopropyl)-myo-inositol-1,2,3,5-tetrakis(phosphate) octasodium salt] here?
Answer: 5 to 10 µM

Question: Which EC50 does the source give for NCCCCCO[C@@H]1[C@@H](OP(=O)(O)O)[C@H](OCCCCCN)[C@@H](OP(=O)(O)O)[C@@H](OP(=O)(O)O)[C@H]1OP(=O)(O)O [Compound 14, 4,6-O-bis(5-aminopentyl)-myo-inositol-1,2,3,5-tetrakis(phosphate) octasodium salt] here?
Answer: ≤ 5 µM

Question: With NCCCCCCCCCCO[C@@H]1[C@@H](OP(=O)(O)O)[C@H](OCCCCCCCCCCN)[C@@H](OP(=O)(O)O)[C@@H](OP(=O)(O)O)[C@H]1OP(=O)(O)O [Compound 15, 4,6-O-bis(10-aminodecyl)-myo-inositol-1,2,3,5-tetrakis(phosphate) octasodium salt] as the compound, how does the EC50 read?
Answer: > 10 µM

Question: With O=P(O)(O)OC1C(OCCCCCn2cccn2)C(OP(=O)(O)O)C(OP(=O)(O)O)C(OP(=O)(O)O)C1OCCCCCn1cccn1 (centres unmarked) [Compound 16, 4,6-O-bis(5-(1H-pyrazol-1-yl)pentyl)-myo-inositol-1,2,3,5-tetrakis(phosphate) octasodium salt] as the compound, how does the EC50 read?
Answer: ≤ 5 µM

Question: With O=P(O)(O)OC1C(OCCCCCn2cncn2)C(OP(=O)(O)O)C(OP(=O)(O)O)C(OP(=O)(O)O)C1OCCCCCn1cncn1 (centres unmarked) [Compound 17, 4,6-O-bis(5-(1H-1,2,4-triazol-1-yl)pentyl)-myo-inositol-1,2,3,5-tetrakis(phosphate) octasodium salt] as the compound, how does the EC50 read?
Answer: > 10 µM

Question: With O=P(O)(O)O[C@@H]1[C@@H](OCCCC(F)(F)F)[C@H](OP(=O)(O)O)[C@H](OP(=O)(O)O)[C@H](OP(=O)(O)O)[C@H]1OCCCC(F)(F)F [Compound 22, 4,6-O-bis(4,4,4-trifluorobutyl)-myo-inositol-1,2,3,5-tetrakis(phosphate) octasodium salt] as the compound, how does the EC50 read?
Answer: ≤ 5 µM

Question: Which EC50 does the source give for COC(=O)NCCCCCOC1C(OP(=O)(O)O)C(OCCCCCNC(=O)OC)C(OP(=O)(O)O)C(OP(=O)(O)O)C1OP(=O)(O)O (centres unmarked) [Compound 25, 4,6-O-bis(5-((methoxycarbonyl)amino)pentyl)-myo-inositol-1,2,3,5-tetrakis(phosphate) octasodium salt] here?
Answer: ≤ 5 µM

Question: Which EC50 does the source give for O=P(O)(O)OC1C(OCCC2CC2)C(OP(=O)(O)O)C(OP(=O)(O)O)C(OP(=O)(O)O)C1OCCC1CC1 (centres unmarked) [Compound 28, 4,6-O-bis(2-cyclopropylethyl)-myo-inositol-1,2,3,5-tetrakis(phosphate) octasodium salt] here?
Answer: ≤ 5 µM
